According to patent US20230272012A1, “PEPTIDES AND METHODS OF USE” (REALTA LIFE SCIENCES, INC., priority 2020, published 2023):
Entries after “also recorded” stand apart in the source; their conditions may differ. Bridge positions count the residues as written; N and C are the ends. Square brackets hold non-standard residues; d marks the D form. Ends that are not written are not given here. Peptide text beside a SMILES is read from it. R8 = C=CCCCCCC[C@@](C)(N)C(=O)O; S5 = C=CCCC[C@](C)(N)C(=O)O; Sar = CNCC(=O)O

What was measured:
[1] = Total Antioxidant Capacity (TAC) assay; settings: highest peptide concentration 1.5 mM
Experimental: As previously reported, the TAC (Total Antioxidant Capacity) Assay (Cell Biolabs, Inc, San Diego, Calif.) was used to measure the antioxidant capacity of the PIC1 variants based on the reduction of copper (II) to copper (I). The kit protocol was performed per the manufacturer's recommendations.
The antioxidant properties for the PIC1 variants were evaluated in a Total Antioxidant Capacity (TAC) assay, as previously reported. Total antioxidant activity over a range of peptide concentrations were determined for the stapled and the D-amino acid peptides based on the PA-I8Sar and PA-C9Sar backbones (FIG. 8A-8D), with the activity of the highest peptide concentration reported (1.5 mM) (FIGS. 4A and B, respectively). […] For the D-amino acid variants, there was variation in the amount of antioxidant activity with the peptides having similar, slightly lower and slightly higher levels of total antioxidant capacity. In contrast, stapled peptides (PA-0135 through -0140) as well as combination of stapled and D-amino acid peptides had reduced total antioxidant capacity (FIG. 4A).

[2] = ABO incompatibility hemolytic assay of complement activity (CH50-type); format: cell-based, human; settings: peptide 0.8 mg/ml (~0.5 mM); read-out: decrease of ABO hemolysis compared to PA-I8Sar
Experimental: FIG. 1A-1B show PIC1 peptides' inhibition of complement activation in an ABO incompatibility assay. […] Inhibition of ABO incompatibility hemolysis in a CH50-type assay. Peptides are at a final concentration of 0.5 mM. Values are represented as a percent of the positive control, which consists of human O sera and AB red blood cells in GVBS^++ buffer. Data are the means of n=3 independent experiments±SEM.
For hemolytic complement assays, human red blood cells (RBCs) from type AB donors were purified, washed, and standardized to 1.0×10^9 cells/ml, as previously described. Human sera from type O donors at a 15% final concentration was combined with 0.5 mM of the peptides and the volume was brought up to 0.2 ml with GVBS^++ and 5.0×10^7 RBCs. The samples were incubated for 1 hour at 37° C. and then spun at 3,000 rpm for 5 minutes and the supernatant was collected and read at 412 nm. Values are represented as a percent of the positive control, which consists of human O sera and AB red blood cells in GVBS^++ buffer.
To assess the extent to which the peptide variants inhibit antibody-initiated complement activation, an ABO incompatibility ex vivo assay was utilized in which purified erythrocytes from a ‘type AB+’ donor are incubated with sera from a ‘type O’ subject containing anti-A and anti-B antibodies. Peptides were tested at a concentration of 0.8 mg/ml (˜0.5 mM). […] D-amino acid variants PA-0127 and PA-0133 decreased ABO hemolysis by 20% (P value=0.083) and 25% (P value=0.076), respectively. […]

complement activity = assay: Hemolytic assay of plasma after IV infusion into rats; format: in vivo, rat; settings: IV in Wistar rats; early time points at the highest dose
Experimental: Male Wistar rats with indwelling jugular catheters were administered PA-0117, -0127, -0130, and -0133 with groups of three animals receiving 20, 200 and 400 mg/kg of the compound as a single, bolus, IV infusion. A control group of rats received an infusion of saline IV. At various time points after infusion (0.5, 2, 5, 20, 60, 120, 240, 480, 1440 minute) an aliquot of blood was drawn and plasma isolated and frozen at −70° C. pending analysis. Animals were sacrificed after the terminal blood draw and a gross necropsy performed.
PA-0117 could not be analyzed as no functional complement activity was obtained from the plasma samples. […] PA-0117 was analyzed in a C1q target acquisition assay (C1q binding assay) as described in Example 1 (FIG. 9). […] PA-0127 and -0130 levels were determined by coating the plate with the plasma samples and directly detecting the peptides by rabbit antibody raised against PA-0020 (peptide sequence […]; SEQ ID NO: 57) (FIGS. 10B and 11B). […] PA-0133 could not be detected by the available antibodies.

human neutrophils = assay: NETosis assay (free DNA, PicoGreen); format: cell-based; settings: peptide 2 mM; neutrophils stimulated with PMA and H2O2
Experimental: Free DNA as a marker for NET formation was measured by PicoGreen as previously described. Briefly, 2.0×10^6 human neutrophils in 96-well plates were stimulated with 12 nM PMA and 0.05% H2O2 in RPMI with or without the indicated peptide variants (2 mM) for 2.5 hr in a 37° C. humified incubator supplemented with 5% CO2, allowing NETosis to occur. Neutrophils in RPMI alone served as a negative control. Fifty units of […] (Fisher) were added to each well to allow for digestion of released extracellular DNA for 10 min at 37° C. The preparation was then aliquoted into an adjacent well and mixed 1:1 with prepared PICO green reagent (Fisher). The fluorescence was then quantified on a BioTek microplate reader at excitation 485 nm/emission 528 nm.

C1q = target: T1, C1q (Homo sapiens, UniProt P02745+P02746+P02747); assay: C1q binding ELISA-type assay; settings: half-maximal binding from binding curves
T1 construct: purchased Complement Technology (Tyler, Tex.)
T1 sequence (P02745 23-245): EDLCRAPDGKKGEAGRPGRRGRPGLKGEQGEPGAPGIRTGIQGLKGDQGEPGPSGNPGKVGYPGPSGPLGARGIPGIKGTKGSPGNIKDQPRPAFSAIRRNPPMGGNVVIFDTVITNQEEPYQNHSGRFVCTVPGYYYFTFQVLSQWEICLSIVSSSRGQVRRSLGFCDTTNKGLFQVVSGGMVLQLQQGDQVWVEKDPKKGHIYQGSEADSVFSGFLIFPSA
T1 sequence (P02746 28-253): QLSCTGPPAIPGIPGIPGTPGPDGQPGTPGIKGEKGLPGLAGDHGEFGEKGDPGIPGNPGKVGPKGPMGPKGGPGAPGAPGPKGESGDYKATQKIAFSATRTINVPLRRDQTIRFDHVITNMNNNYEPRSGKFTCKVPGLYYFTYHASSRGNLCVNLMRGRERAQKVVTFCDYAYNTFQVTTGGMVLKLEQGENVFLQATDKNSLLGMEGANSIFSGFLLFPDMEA
T1 sequence (P02747 29-245): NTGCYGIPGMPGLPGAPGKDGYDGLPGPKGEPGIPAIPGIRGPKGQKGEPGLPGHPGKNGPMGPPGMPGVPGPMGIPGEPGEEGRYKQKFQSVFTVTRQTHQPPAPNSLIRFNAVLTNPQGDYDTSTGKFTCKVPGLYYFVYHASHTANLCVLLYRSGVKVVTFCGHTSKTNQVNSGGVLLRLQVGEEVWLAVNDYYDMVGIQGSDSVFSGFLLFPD
Experimental: The C1q binding assay was performed as previously described. Briefly, an Immunlon-2 HB ELISA plate was coated with 1 μg/ml C1q in bicarbonate buffer overnight at 4° C. The plates were washed with PBS-T (phosphate buffered saline+0.1% Tween) and then blocked with 1% gelatin/PBS for 2 hours at room temperature. After washing, the plates were incubated with the peptides starting at 2.5 mg/ml and then serially diluted in 1% gelatin/PBS for 1 hour at room temperature followed by washing. Plates were then probed with rabbit antibody raised against the lead peptide […] (SEQ ID NO: 2) that lacked PEGylation at 1:1000 in 1% gelatin/PBS for 1 hour at room temperature followed by a goat anti-rabbit HRP (Sigma Aldrich, St Louis, Mo.) at 1:1,000 in 1% gelatin/PBS for 1 hour at room temperature with a washing step in between. After addition of TMB substrate solution to the wells, the reaction was stopped using 1N H2SO4, and the plate read on a BioTek Synergy HT plate reader at 450 nm.
The astrovirus capsid protein and the PIC1 molecules derived from it inhibit classical complement pathway activation by binding to the pattern recognition molecule C1q. The inventors next tested peptide variant binding to C1q in an ELISA-type assay in which C1q is used as the capture substrate and bound peptide detected with a rabbit polyclonal antibody against the peptide portion of PA-dPEG24 ([…]-d24; SEQ ID NO: 3). Binding curves were derived for the stapled and D-amino acid peptides based on the PA-I8Sar and PA-C9Sar (FIG. 6A-6D) backbone, from which half-maximal binding concentrations were calculated (FIGS. 2A and B, respectively). […] For the D-amino acid variants, all peptides in which C1q binding was detected, had variable but increased binding to C1q compared to PA-I8Sar (FIG. 2A). For the peptides based on the PA-C9Sar backbone, with the exception of PA-0148, C1q was bound to the same degree or greater than the parent peptide (FIG. 2B).
The inventors also assessed the ability of RLS-0127* and RLS-0133* to inhibit MPO activity as determined by inhibition of oxidation of TMB in a plate-based assay. […] Additionally, the inventors assessed the ability of RLS-0127* and RLS-0133* to bind C1q in a plate-based assay in which C1q is coated on the plate and increasing amounts of the peptides are added, followed by primary antibody to the peptides and secondary antibody conjugated to HRP. The plate was then incubated with TMB to give a […] signal that is detected at a wavelength of 450 nm in a plate reader.

**Q.** With “IALR8LEPI(Sar)CS5ERAA (IAL[R8]LEPI[Sar]C[S5]ERAA; bridges not given here; also: R8/S5 4-11 may or may not be stapled) [PA-0147]” as the molecule, how does the “total antioxidant capacity compared with PA-C9Sar” value [1] read?
**A.** The value was “maintained similar activity”.

**Q.** Which results are given for `CC[C@H](C)[C@H](N)C(=O)N[C@@H](C)C(=O)N[C@@H](CC(C)C)C(=O)N[C@H](C(=O)N[C@@H](CC(C)C)C(=O)N[C@@H](CCC(=O)O)C(=O)N1CCC[C@H]1C(=O)N(C)CC(=O)N[C@@H](CS)C(=O)N[C@@H](CS)C(=O)N[C@@H](CCC(N)=O)C(=O)N[C@@H](CCC(=O)O)C(=O)N[C@@H](CCCNC(=N)N)C(=O)N[C@@H](C)C(=O)N[C@H](C)C(=O)O)[C@@H](C)CC` [PA-0133, IALILEP(Sar)CCQERAdA] (HELM PEPTIDE1{I.A.L.I.L.E.P.[Sar].C.C.Q.E.R.A.[dA]}$$$$V2.0)?
**A.** decrease in ABO hemolysis compared to reference peptide [2]: 25%; inhibition of complement activity in the hemolytic assay of rat plasma (complement activity): inhibition of complement activity; reduction of free DNA (marker of NETosis) (human neutrophils): reduction in free DNA similar to that of the PA-I8Sar control; also recorded: ability to inhibit NET formation

**Q.** For “IALILS5P(Sar)CS5QERAA (IALIL[S5]P[Sar]C[S5]QERAA; staple 6-10) [PA-0119]”, which “binding to C1q compared with PA-I8Sar” value (C1q) is on record?
**A.** The value was “markedly increased binding to C1q”.

**Q.** Which “total antioxidant capacity compared with PA-I8Sar” value [1] does the source give for `CC[C@H](C)[C@H](N)C(=O)N[C@@H](C)C(=O)N[C@@H](CC(C)C)C(=O)N[C@H](C(=O)N[C@@H](CC(C)C)C(=O)N[C@@H](CCC(=O)O)C(=O)N1CCC[C@H]1C(=O)N(C)CC(=O)N[C@@H](CS)C(=O)N[C@@H](CS)C(=O)N[C@@]1(C)CCCC=CCCC[C@@](C)(C(=O)O)NC(=O)[C@H](C)NC(=O)[C@H](CCCNC(=N)N)NC(=O)[C@H](CCC(=O)O)NC1=O)[C@@H](C)CC` [PA-0116, IALILEP(Sar)CCS5ERAS5] (H-IALILEP[Sar]CC[S5]ERA[S5]-OH; staple 11-15) here?
**A.** Its value is “increased activity; also recorded: superior antioxidant activity”.

**Q.** Which “total antioxidant capacity compared with PA-I8Sar” value [1] does the source give for “IALILR8P(Sar)CCQES5AA (IALIL[R8]P[Sar]CCQE[S5]AA; bridges not given here; also: R8/S5 6-13 may or may not be stapled) [PA-0114]” here?
**A.** Its value is “reduction in total antioxidant capacity”.
